Results reported in patent US9233979B2, “Compounds that are ERK inhibitors” (Merck Sharp & Dohme Corp., priority 2012, dated 2016).

The compounds below were run against phosphorylated active hERK2 enzyme (Homo sapiens (Human), UniProt P28482) (assay: Active Human ERK2 (hERK2) Activity Assay (IMAP-FP)). Details: Table 6, 0.5 nM hERK2, 30 μM ATP, 10 point titration, read-out: AERK2 IC50.
Chain of phosphorylated active hERK2 enzyme (P28482 whole entry): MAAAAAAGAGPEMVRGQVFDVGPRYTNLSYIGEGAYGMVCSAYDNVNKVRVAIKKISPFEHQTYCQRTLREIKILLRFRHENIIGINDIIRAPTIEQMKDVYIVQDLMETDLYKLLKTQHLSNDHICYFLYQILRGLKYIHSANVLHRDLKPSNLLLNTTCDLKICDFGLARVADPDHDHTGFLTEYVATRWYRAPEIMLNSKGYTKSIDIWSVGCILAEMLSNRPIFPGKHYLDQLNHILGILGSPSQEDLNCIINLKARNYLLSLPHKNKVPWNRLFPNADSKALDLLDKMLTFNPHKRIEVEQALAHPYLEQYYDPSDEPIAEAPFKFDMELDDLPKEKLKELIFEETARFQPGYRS
Assay type: biochemical
Method in brief: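 IMAP detection beads in buffer with 24 mM NaCl stopped the reaction, and fluorescence polarization was read after 60 min binding.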
In the case of `Nc1n[nH]c2cc(NC(=O)N[C@@H]3CCOc4ccccc43)ncc12` [Example 258, 1-(3-amino-1H-pyrazolo[4,3-c]pyridin-6-yl)-3-[(4R)-3,4-dihydro-2H-chromen-4-yl]-urea], the IC50 is reported as 103 nM.
With `Nc1n[nH]c2cc(NC(=O)NC3COc4ccccc43)ncc12` (stereo not shown) [Example 259, 1-(3-amino-1H-pyrazolo[4,3-c]pyridin-6-yl)-3-(2,3-dihydro-1-benzofuran-3-yl)-urea] the IC50 was 325 nM.
With `Nc1n[nH]c2cc(NC(=O)N[C@@H](c3ccccc3)C3(O)CCCC3)ncc12` [Example 260, 1-(3-amino-1H-pyrazolo[4,3-c]-pyridin-6-yl)-3-[(S)-(1-hydroxy-cyclopentyl)-(phenyl)methyl]-urea] the IC50 was 0.4 nM.
`Nc1n[nH]c2cc(NC(=O)NC3CCCC3c3ccccc3)ncc12` (stereo not shown) [Example 261, 1-(3-amino-1H-pyrazolo[4,3-c]-pyridin-6-yl)-3-(2-phenylcyclopentyl)urea] showed an IC50 of 6 nM.
With `CCOc1ncccc1CNC(=O)Nc1cc2[nH]nc(N)c2cn1` [Example 262, 1-(3-amino-1H-pyrazolo[4,3-c]pyridin-6-yl)-3-[(2-ethoxypyridin-3-yl)methyl]urea] the IC50 was 20.7 nM.
`CN(C)C[C@H](NC(=O)Nc1cc2[nH]nc(N)c2cn1)c1ccccc1` [Example 263, 1-(3-amino-1H-pyrazolo[4,3-c]-pyridin-6-yl)-3-[(1R)-2-(dimethylamino)-1-phenylethyl]urea] showed an IC50 of 127 nM.
For `Nc1n[nH]c2cc(NC(=O)NCc3ccc(F)c(Cl)c3)ncc12` [Example 264, 1-(3-amino-1H-pyrazolo[4,3-c]-pyridin-6-yl)-3-(3-chloro-4-fluorobenzyl)urea], the IC50 was 940 nM.
`Nc1n[nH]c2cc(NC(=O)NCc3cccc(F)c3)ncc12` [Example 265, 1-(3-amino-1H-pyrazolo[4,3-c]-pyridin-6-yl)-3-(3-fluorobenzyl)urea] showed an IC50 of 24.5 nM.
In the case of `Cc1cccc(Cl)c1CNC(=O)Nc1cc2[nH]nc(N)c2cn1` [Example 266, 1-(3-amino-1H-pyrazolo[4,3-c]pyridin-6-yl)-3-(2-chloro-6-methylbenzyl)urea], the IC50 is reported as 13.8 nM.
Work on `Nc1n[nH]c2cc(NC(=O)NCc3ccccc3OC(F)F)ncc12` [Example 267, 1-(3-amino-1H-pyrazolo[4,3-c]pyridin-6-yl)-3-[2-(difluoro-methoxy)benzyl]-urea] yielded an IC50 of 5.3 nM.
Work on `COc1ccccc1CNC(=O)Nc1cc2[nH]nc(N)c2cn1` [Example 268, 1-(3-amino-1H-pyrazolo[4,3-c]pyridin-6-yl)-3-(2-methoxy-benzyl)urea] yielded an IC50 of 10.7 nM.
In the case of `COc1cccc(F)c1CNC(=O)Nc1cc2[nH]nc(N)c2cn1` [Example 269, 1-(3-amino-1H-pyrazolo[4,3-c]pyridin-6-yl)-3-(2-fluoro-6-methoxy-benzyl)urea], the IC50 is reported as 3.3 nM.
Compound `C[C@@H](NC(=O)Nc1cc2[nH]nc(N)c2cn1)c1cccc(F)c1` [Example 270, 1-(3-amino-1H-pyrazolo[4,3-c]pyridin-6-yl)-3-[(1R)-1-(3-fluorophenyl)ethyl]urea] has an IC50 of 3.2 nM.
Work on `C[C@@H](NC(=O)Nc1cc2[nH]nc(N)c2cn1)c1ccc(F)c(Cl)c1` [Example 271, 1-(3-amino-1H-pyrazolo[4,3-c]pyridin-6-yl)-3-[(1R)-1-(3-chloro-4-fluorophenyl)-ethyl]urea] yielded an IC50 of 17.3 nM.
Compound `C[C@@H](NC(=O)Nc1cc2[nH]nc(N)c2cn1)c1cccc(Cl)c1` [Example 272, 1-(3-amino-1H-pyrazolo[4,3-c]pyridin-6-yl)-3-[(1R)-1-(3-chloro-phenyl)ethyl]urea] has an IC50 of 5.6 nM.
In the case of `CC[C@@H](NC(=O)Nc1cc2[nH]nc(N)c2cn1)c1ccc(Cl)cc1` [Example 273, 1-(3-amino-1H-pyrazolo[4,3-c]pyridin-6-yl)-3-[(1R)-1-(4-chloro-phenyl)propyl]urea], the IC50 is reported as 2.6 nM.
Work on `CN(C)c1ncccc1CNC(=O)Nc1cc2[nH]nc(N)c2cn1` [Example 274, 1-(3-amino-1H-pyrazolo[4,3-c]-pyridin-6-yl)-3-{[2-(dimethylamino)-pyridin-3-yl]-methyl}urea] yielded an IC50 of 32.4 nM.
`CC(NC(=O)Nc1cc2[nH]nc(N)c2cn1)c1ccc(F)c(F)c1` (stereo not shown) [Example 275, 1-(3-amino-1H-pyrazolo[4,3-c]-pyridin-6-yl)-3-[1-(3,4-difluorophenyl)-ethyl]urea] was tested, and the IC50 was 4.6 nM.
Work on `Cc1cc([C@@H](C)NC(=O)Nc2cc3[nH]nc(N)c3cn2)ccc1Cl` [Example 276, 1-(3-amino-1H-pyrazolo[4,3-c]pyridin-6-yl)-3-[(1R)-1-(4-chloro-3-methylphenyl)-ethyl]urea] yielded an IC50 of 2.3 nM.
Compound `CN1C[C@@H](NC(=O)Nc2cc3[nH]nc(N)c3cn2)[C@H](c2ccccc2)C1` [Example 277, 1-(3-amino-1H-pyrazolo[4,3-c]pyridin-6-yl)-3-[(3S,4R)-1-methyl-4-phenylpyrrolidin-3-yl]urea] has an IC50 of 3.2 nM.
`CCNc1n[nH]c2cc(NC(=O)NCc3ncccc3Cl)ncc12` [Example 278, 1-[(3-chloro-pyridin-2-yl)-methyl]-3-[3-(ethylamino)-1H-pyrazolo[4,3-c]-pyridin-6-yl]urea] showed an IC50 of 21.8 nM.
`CCNc1n[nH]c2cc(NC(=O)NCc3ncccc3F)ncc12` [Example 279, 1-[3-(ethylamino)-1H-pyrazolo[4,3-c]pyridin-6-yl]-3-[(3-fluoropyridin-2-yl)methyl]urea] showed an IC50 of 63.4 nM.
`CCNc1n[nH]c2cc(NC(=O)NC(C)c3ccc(C)nc3)ncc12` (stereo not shown) [Example 280, 1-[3-(ethylamino)-1H-pyrazolo[4,3-c]pyridin-6-yl]-3-[1-(6-methyl-pyridin-3-yl)-ethyl]urea] showed an IC50 of 143 nM.
Work on `CCNc1n[nH]c2cc(NC(=O)NC(C)c3cc(C)ccn3)ncc12` (stereo not shown) [Example 281, 1-[3-(ethylamino)-1H-pyrazolo[4,3-c]pyridin-6-yl]-3-[1-(4-methyl-pyridin-2-yl)-ethyl]urea] yielded an IC50 of 98.3 nM.
Compound `CCNc1n[nH]c2cc(NC(=O)NC(C)c3ccc(F)nc3)ncc12` (stereo not shown) [Example 282, 1-[3-(ethylamino)-1H-pyrazolo[4,3-c]pyridin-6-yl]-3-[1-(6-fluoropyridin-3-yl)ethyl]urea] has an IC50 of 34.2 nM.
`CCNc1n[nH]c2cc(NC(=O)NC(C)c3cccnc3)ncc12` (stereo not shown) [Example 283, 1-[3-(ethylamino)-1H-pyrazolo[4,3-c]pyridin-6-yl]-3-(1-pyridin-3-ylethyl)urea] was tested, and the IC50 was 44.4 nM.
For `CCNc1n[nH]c2cc(NC(=O)NC(C)c3ccc(F)cn3)ncc12` (stereo not shown) [Example 284], the IC50 was 33 nM.
With `COC(=O)Nc1n[nH]c2cc(NC(=O)N[C@H](C)c3ccc(Cl)cc3)ncc12` [Example 286, methyl [6-({[(1R)-1-(4-chlorophenyl)-ethyl]carbamoyl}-amino)-1H-pyrazolo[4,3-c]pyridin-3-yl]carbamate] the IC50 was 5.2 nM.
`COC(=O)Nc1n[nH]c2cc(NC(=O)N[C@H](C)c3cccc(Cl)c3)ncc12` [Example 287, methyl [6-({[(1R)-1-(3-chlorophenyl)-ethyl]carbamoyl}-amino)-1H-pyrazolo[4,3-c]-pyridin-3-yl}-carbamate] gave an IC50 of 1 nM.
`COC(=O)Nc1n[nH]c2cc(NC(=O)N[C@H](COC(F)F)c3ccccc3)ncc12` [Example 288, methyl [6-({[(1S)-2-(difluoro-methoxy)-1-phenylethyl]-carbamoyl}amino)-1H-pyrazolo[4,3-c]pyridin-3-yl}-carbamate] was tested, and the IC50 was 0.6 nM.
With `COC(=O)Nc1n[nH]c2cc(NC(=O)N[C@@H](c3ccccc3)C3(O)CCCC3)ncc12` [Example 289, methyl [6-({[(S)-(1-hydroxycyclo-pentyl)(phenyl)-methyl]carbamoyl}amino)-1H-pyrazolo[4,3-c]-pyridin-3-yl]-carbamate] the IC50 was 0.9 nM.
`COC(=O)Nc1n[nH]c2cc(NC(=O)N[C@@H](c3ccccc3)[C@H]3CCCO3)ncc12` [Example 290, methyl {6-[({(S)-phenyl[(2R)-tetra-hydrofuran-2-yl]-methyl}carbamoyl)amino]-1H-pyrazolo[4,3-c]-pyridin-3-yl}-carbamate] was tested, and the IC50 was 0.6 nM.
For `COC(=O)Nc1n[nH]c2cc(NC(=O)N[C@@H]3CN(C)C[C@H]3c3ccccc3)ncc12` [Example 291, methyl[6-({[(3S,4R)-1-methyl-4-phenyl-pyrrolidin-3-yl]carbamoyl}-amino)-1H-pyrazolo[4,3-c]pyridin-3-yl]-carbamate], the IC50 was 1 nM.
Compound `COC(=O)Nc1n[nH]c2cc(NC(=O)N[C@H](C)C3CCCCC3)ncc12` [Example 292, methyl [6-({[(1R)-1-cyclohexylethyl]-carbamoyl}amino)-1H-pyrazolo[4,3-c]pyridin-3-yl]-carbamate] has an IC50 of 19.7 nM.
`COC(=O)Nc1n[nH]c2cc(NC(=O)NC3CNc4ccccc4C3)ncc12` (stereo not shown) [Example 293, methyl {6-[(1,2,3,4-tetrahydroquinolin-3-ylcarbamoyl)-amino]-1H-pyrazolo[4,3-c]-pyridin-3-yl}-carbamate] was tested, and the IC50 was 5.8 nM.
`COC(=O)Nc1n[nH]c2cc(NC(=O)NC3COc4ccccc4C3)ncc12` (stereo not shown) [Example 294, methyl {6-[(3,4-dihydro-2H-chromen-3-ylcarbamoyl)amino]-1H-pyrazolo[4,3-c]pyridin-3-yl}-carbamate] was tested, and the IC50 was 26.4 nM.
`COC(=O)Nc1n[nH]c2cc(NC(=O)N[C@@H]3CCOc4ccccc43)ncc12` [Example 295, methyl (6-{[(4R)-3,4-dihydro-2H-chromen-4-ylcarbamoyl]-amino}-1H-pyrazolo[4,3-c]-pyridin-3-yl)-carbamate] was tested, and the IC50 was 55 nM.
With `COC(=O)Nc1n[nH]c2cc(NC(=O)NCc3ccccc3OC(F)F)ncc12` [Example 296, methyl [6-({[2-(difluoromethoxy)-benzyl]carbamoyl}-amino)-1H-pyrazolo[4,3-c]-pyridin-3-yl}-carbamate] the IC50 was 2.5 nM.
Work on `COC(=O)Nc1n[nH]c2cc(NC(=O)NCc3ccccc3OC)ncc12` [Example 297, methyl (6-{[(2-methoxybenzyl)-carbamoyl]amino}-1H-pyrazolo[4,3-c]pyridin-3-yl)-carbamate] yielded an IC50 of 2 nM.
In the case of `COC(=O)Nc1n[nH]c2cc(NC(=O)NCc3c(F)cccc3OC)ncc12` [Example 298, methyl (6-{[(2-fluoro-6-methoxy-benzyl)carbamoyl]-amino}-1H-pyrazolo[4,3-c]-pyridin-3-yl)-carbamate], the IC50 is reported as 1.2 nM.
